Source: patent publication US20230278974A1, “ANTITUMORAL ASCORBIC ACID ESTERS” (SUIGENERIS FARMACOSMETICS, S.L., priority 2020, published 2023)

Test system: primary or metastatic human cancer cells from various origins (IGR39, IGR37, MW115, MW266.4, DLD1, SW480, HCT116, NUG-C4, COLO668, BXPC3, CAPAN2, RWP1)
Assay: Growth inhibition of human cancer cell lines (crystal violet staining, 96 well plates)
Type: cell-based
Conditions: even at concentrations as low as 0.2 mM; 72 h treatment
Text: The BXPC3, CAPAN2, RWP1 cell lines from human pancreatic cancer were provided by the Biomedical Research Institute (IRB) Barcelona; the MW115 and IGR39 cell lines from human primary melanoma and MW 266.4 and IGR37 from human metastatic melanoma were provided by Dr. Manel Esteller from the Catalan Institute of Oncology (ICO) Barcelona (Vizoso M. et al., “Epigenetic activation of a cryptic TBC1D16 transcript enhances melanoma progression by targeting EGFR” Nat Med., 2015, vol 21(7), pp. 741-50); DLDL1, SW480 and HCT116 cell lines from human colon cancer were provided by Dra. Neus Agell from the Research Institute August Pi Sunyer (IDIBAPS) - University of Barcelona (UB); NUG-C4 and COLO668 cell lines from human gastric and lung cancers, respectively, were provided by the Center for Genomic Regulation (CRG) Barcelona. […]
The cells were resuspended by trypsin/EDTA digestion with 0.5% Trypsin-EDTA in the case of different human cancer cell lines, and 0.25% Trypsin-EDTA in the case of human primary endothelial cells. Once resuspended in culture medium, they were counted in Newbauer chamber after a 1:1 dilution with trypan blue. […]
The optical density values per well were obtained by a Biotek Synergy™2 multi-detection microplate reader, using a 590 nm filter and by scanning reading, obtaining the mean values per well.

CCCCCCC1CCC(CCC(=O)OC[C@H](O)[C@H]2OC(=O)C(O)=C2O)CC1 (stereo partly drawn) [Compound Ib, (S)-2-((R)-3,4-Dihydroxy-5-Oxo-2,5-Dihydrofuran-2-Yl)-2-Hydroxyethyl 3-(4-Hexylcyclohexyl)Propanoate]
inhibitory capacity on growth of cancer cells: remarkable inhibitory capacity
